According to patent US20040043959A1, “Combination therapies for treating methylthioadenosine phosphorylase deficient cells” (priority 2002, published 2004):

Target: T1, Human MTAP (Homo sapiens, UniProt Q13126)
T1 construct: six-histidine tag (His6) (N); made in house; host or cells: E. coli BL21 DE3
T1 sequence (Q13126 1-283): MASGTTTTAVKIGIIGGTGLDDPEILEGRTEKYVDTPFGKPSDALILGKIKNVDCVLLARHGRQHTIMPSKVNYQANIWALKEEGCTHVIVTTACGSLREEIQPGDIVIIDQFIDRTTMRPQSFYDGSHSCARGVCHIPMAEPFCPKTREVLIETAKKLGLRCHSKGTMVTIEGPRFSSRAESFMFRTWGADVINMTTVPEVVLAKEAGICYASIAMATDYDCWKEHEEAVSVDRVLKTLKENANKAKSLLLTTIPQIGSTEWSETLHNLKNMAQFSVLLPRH
Assay: MTAP substrate assay, coupled spectrophotometric (adenine, xanthine oxidase)
Assay type: biochemical
Conditions: 2 nM MTAP; for activity at 50 µM: 10 min, read-out: MT-A—50: initial velocity as a percentage of the initial velocity with MTA as substrate; for MT-A—10: initial velocity as a percentage of the initial velocity with MTA as substrate: compound 10 uM, relative to MTA at 10 uM
Summary of the method: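 Detection was xanthine oxidase-coupled (0.8 units/ml), reading adenine-derived absorbance at 305 nm over 10 min in potassium phosphate/DTT buffer at 37° C, with N-His6 enzyme purified from E. coli.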

[1] = compound 50 uM, relative to MTA at 50 uM

Row | Molecule | activity at 50 µM [1] | MT-A—10: initial velocity as a percentage of the initial velocity with MTA as substrate | MT-A—50: initial velocity as a percentage of the initial velocity with MTA as substrate [1]
1 | Nc1ncnc2c1ncn2[C@@H]1O[C@H](CSCc2ccc(Cl)c(Cl)c2)[C@@H](O)[C@H]1O [2(G)(145), (2R, 3R, 4S, 5S)-2-(6-amino-9H-purin-9-yl)-5-{[(3,4-dichlorobenzyl)-thio]methyl}tetrahydro-furan-3,4-diol] | 16% | 3.5% | 
2 | CC(C)c1ccccc1SC[C@H]1O[C@@H](n2cnc3c(N)ncnc32)[C@H](O)[C@@H]1O [2(G)(146), (2R, 3R, 4S, 5S)-2-(6-amino-9H-purin-9-yl)-5-{[(2-isopropylphenyl)-thio]methyl}tetrahydro-furan-3,4-diol] | 2% | 28% | 
3 | Nc1ncnc2c1ncn2[C@@H]1O[C@H](CSc2cccc(F)c2)[C@@H](O)[C@H]1O [2(G)(147), (2R, 3R, 4S, 5S)-2-(6-amino-9H-purin-9-yl)-5-{[(3-fluorophenyl)-thio]methyl}tetrahydro-furan-3,4-diol] | 25.5% | 18.5% | 
4 | Cc1cc(C)cc(SC[C@H]2O[C@@H](n3cnc4c(N)ncnc43)[C@H](O)[C@@H]2O)c1 [2(G)(148), (2R, 3R, 4S, 5S)-2-(6-amino-9H-purin-9-yl)-5-{[(3,5-dimethylphenyl)-thio]methyl}tetrahydro-furan-3,4-diol] | 15% | 2% | 
5 | Cc1ccc(SC[C@H]2O[C@@H](n3cnc4c(N)ncnc43)[C@H](O)[C@@H]2O)c(C)c1 [2(G)(149), (2R, 3R, 4S, 5S)-2-(6-amino-9H-purin-9-yl)-5-{[(2,4-dimethylphenyl)-thio]methyl}tetrahydro-furan-3,4-diol] | 2.5% | 35.5% | 
6 | Cc1ccc(SC[C@H]2O[C@@H](n3cnc4c(N)ncnc43)[C@H](O)[C@@H]2O)cc1C [2(G)(150), (2R, 3R, 4S, 5S)-2-(6-amino-9H-purin-9-yl)-5-{[(3,4-dimethylphenyl)-thio]methyl}tetrahydro-furan-3,4-diol] | 33.5% | 2% | 
7 | Nc1ncnc2c1ncn2[C@@H]1O[C@H](CSc2cccc(Cl)c2Cl)[C@@H](O)[C@H]1O [2(G)(151), (2R, 3R, 4S, 5S)-2-(6-amino-9H-purin-9-yl)-5-{[(2,3-dichlorophenyl)-thio]methyl}tetrahydro-furan-3,4-diol] | 2% | 13.5% | 
8 | CSc1nsc(SC[C@H]2O[C@@H](n3cnc4c(N)ncnc43)[C@H](O)[C@@H]2O)n1 [2(G)(152), (2R, 3R, 4S, 5S)-2-(6-amino-9H-purin-9-yl)-5-({[3-(methylthio)-1,2,4-thiodiazol-5-yl)-thio}methyl)tetrahydro-furan-3,4-diol] | 17% | 19.5% | 
9 | Nc1ncnc2c1ncn2[C@@H]1O[C@H](CSc2nc3ccc(Cl)cc3o2)[C@@H](O)[C@H]1O [2(G)(153), (2R, 3R, 4S, 5S)-2-(6-amino-9H-purin-9-yl)-5-{[(6-chloro-1,3-benz-oxazol-2-yl)thio]methyl}tetrahydrofuran-3,4-diol] | 22.5% | 10% | 
10 | Cc1cc(C)nc(SC[C@H]2O[C@@H](n3cnc4c(N)ncnc43)[C@H](O)[C@@H]2O)n1 [2(G)(154), (2R, 3R, 4S, 5S)-2-(6-amino-9H-purin-9-yl)-5-{[(4,6-dimethyl-pyrimidin-2-yl)thio]methyl}tetrahydrofuran-3,4-diol] | 26% | 39% | 
11 | Cc1cnc(SC[C@H]2O[C@@H](n3cnc4c(N)ncnc43)[C@H](O)[C@@H]2O)nc1O [2(G)(155), (2R, 3R, 4S, 5S)-2-(6-amino-9H-purin-9-yl)-5-{[(4-hydroxy-5-methyl-pyrimidin-2-yl)thio]-methyl}tetrahydrofuran-3,4-diol] | 39% | 22.5% | 
12 | CC(SC[C@H]1O[C@@H](n2cnc3c(N)ncnc32)[C@H](O)[C@@H]1O)c1ccccc1 (stereo partly drawn) [2(G)(156), (2R, 3R, 4S, 5S)-2-(6-amino-9H-purin-9-yl)-5-{[(1-phenylethyl)thio]-methyl}tetrahydrofuran-3,4-diol] | 33% | 6% | 

Results, then the molecule that gave them:

Row | activity at 50 µM [1] | MT-A—10: initial velocity as a percentage of the initial velocity with MTA as substrate | MT-A—50: initial velocity as a percentage of the initial velocity with MTA as substrate [1] | Molecule
13 | 15.5% | 32.5% |  | Nc1ncnc2c1ncn2[C@@H]1O[C@H](CSc2ccccc2CO)[C@@H](O)[C@H]1O [2(G)(157), (2R, 3R, 4S, 5S)-2-(6-amino-9H-purin-9-yl)-5-({[2-(hydroxymethyl)-phenyl]thio}methyl)tetra-hydrofuran-3,4-diol]
14 | 43.5% | 7% |  | Cc1nc(SC[C@H]2O[C@@H](n3cnc4c(N)ncnc43)[C@H](O)[C@@H]2O)nc(O)c1C [2(G)(158), (2R, 3R, 4S, 5S)-2-(6-amino-9H-purin-9-yl)-5-{[(4-hydroxy-5,6-dimethylpyrimidin-2-yl)-thio]methyl}tetrahydro-furan-3,4-diol]
15 | 28% | 7.5% |  | NC(=O)CSC[C@H]1O[C@@H](n2cnc3c(N)ncnc32)[C@H](O)[C@@H]1O [2(G)(159), 2-({[(2S, 3S, 4R, 5R)-5-(6-amino-9H-purin-9-yl)-3,4-dihydroxytetrahydro-furan-2-yl)methyl}thio)-acetamide]
16 | 17% | 12% |  | Nc1ncnc2c1ncn2[C@@H]1O[C@H](CSc2nccn2Cc2ccccc2)[C@@H](O)[C@H]1O [2(G)(160), (2R, 3R, 4S, 5S)-2-(6-amino-9H-purin-9-yl)-5-{[(1-benzyl-1H-imidazol-2-yl)thio]methyl}tetra-hydrofuran-3,4-diol]
17 | 28% | 14.5% |  | CNC(=O)c1ccccc1SC[C@H]1O[C@@H](n2cnc3c(N)ncnc32)[C@H](O)[C@@H]1O [2(G)(161), 2-({[(2S, 3S, 4R, 5R)-5-(6-amino-9H-purin-9-yl)-3,4-dihydroxytetrahydro-furan-2-yl]methyl}thio)-N-methylbenzamide]
18 | 39.5% | 29% |  | CCCc1cc(O)nc(SC[C@H]2O[C@@H](n3cnc4c(N)ncnc43)[C@H](O)[C@@H]2O)n1 [2(G)(162), (2R, 3R, 4S, 5S)-2-(6-amino-9H-purin-9-yl)-5-{[(4-hydroxy-6-propylpyrimidin-2-yl)-thio]methyl}tetrahydro-furan-3,4-diol]
19 | 26.5% | 12% |  | Nc1ncnc2c1ncn2[C@@H]1O[C@H](CSc2nc3cc(Cl)ccc3o2)[C@@H](O)[C@H]1O [2(G)(163), (2R, 3R, 4S, 5S)-2-(6-amino-9H-purin-9-yl)-5-{[(5-chloro-1,3-benz-oxazol-2-yl)thio]methyl}-tetrahydrofuran-3,4-diol]
20 | 29% | 13.5% |  | COC(=O)c1cnc(SC[C@H]2O[C@@H](n3cnc4c(N)ncnc43)[C@H](O)[C@@H]2O)n1C [2(G)(164), Methyl 2-({[(2S, 3S, 4R, 5R)-5-(6-amino-9H-purin-9-yl)-3,4-dihydroxy-tetrahydrofuran-2-yl]methyl}thio)-1-methyl-1H-imidazole-5-carboxylate]
21 | 33.5% | 25% |  | CC(C)(C)c1cc(O)nc(SC[C@H]2O[C@@H](n3cnc4c(N)ncnc43)[C@H](O)[C@@H]2O)n1 [2(G)(165), (2R, 3R, 4S, 5S)-2-(6-amino-9H-purin-9-yl)-5-{[(4-tert-butyl-6-hydroxypyrimidin-2-yl)thio]methyl}tetrahydro-furan-3,4-diol]
22 |  | 5% | 2% | (2R, 3R, 4S, 5S)-2-(6- amino-9H-purin-9-yl)-5- {[(5-chloro-1H- yl)thio]methyl}tetrahydro- furan-3,4-diol [2(G)(5)]
